Results on 9 molecules are retold here after patent US10519154B2, “7-substituted 1-pyridyl-naphthyridine-3-carboxylic acid amides and use thereof” (Bayer Pharma Aktiengesellschaft, priority 2016, dated 2019).

As a reminder, the EC50 is the concentration that produces a half-maximal response.

The assay has as its target T1, human M2 receptor (Homo sapiens, UniProt P08172).
T1 sequence (P08172 1-466): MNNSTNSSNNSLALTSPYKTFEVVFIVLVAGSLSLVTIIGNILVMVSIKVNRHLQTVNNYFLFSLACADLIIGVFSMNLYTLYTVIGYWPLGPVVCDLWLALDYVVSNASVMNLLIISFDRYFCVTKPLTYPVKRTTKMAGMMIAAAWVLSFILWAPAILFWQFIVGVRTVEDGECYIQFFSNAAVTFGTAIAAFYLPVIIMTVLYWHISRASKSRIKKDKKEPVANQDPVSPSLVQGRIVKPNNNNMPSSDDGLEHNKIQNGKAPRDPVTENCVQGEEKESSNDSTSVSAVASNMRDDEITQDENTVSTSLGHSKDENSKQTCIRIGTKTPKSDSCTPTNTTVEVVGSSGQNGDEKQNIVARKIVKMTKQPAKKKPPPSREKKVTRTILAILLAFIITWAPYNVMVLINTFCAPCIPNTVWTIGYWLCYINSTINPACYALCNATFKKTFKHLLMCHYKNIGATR
As to the kind of experiment: Functional M2-GIRK1/4 activation test: allosteric potency (EC50) and efficiency. The settings on record: for EC50: Receptor activity EC50, CHO-DUKX-M2-GIRK cells, acetylcholine at EC20, in some cases mean of two or more determinations; for Emax: read-out: Efficiency, boosting of the acetylcholine effect at EC20 acetylcholine concentration, CHO-DUKX-M2-GIRK cells.

Take `CC1(NC(=O)c2cn(-c3ncc(F)cc3F)c3nc(N4CCNC4=O)ccc3c2=O)CC(F)(F)C1` [Example 171, N-(3,3-Difluoro-1-methylcyclobutyl)-1-(3,5-difluoropyridin-2-yl)-4-oxo-7-(2-oxoimidazolidin-1-yl)-1,4-dihydro-1,8-naphthyridine-3-carboxamide]: the EC50 turned out to be 3100 nM and the Emax came out at 90.5%.

Consider `CC1(NC(=O)c2cn(-c3ncc(F)cc3F)c3nc(N4C[C@@H](O)CC4=O)ccc3c2=O)CC(F)(F)C1` [Example 172, N-(3,3-Difluoro-1-methylcyclobutyl)-1-(3,5-difluoropyridin-2-yl)-7-[(4S)-4-hydroxy-2-oxopyrrolidin-1-yl]-4-oxo-1,4-dihydro-1,8-naphthyridine-3-carboxamide], for which the EC50 stood at 1600 nM and the Emax came out at 98%.

Turning to `CC(C)(NC(=O)c1cn(-c2ncc(F)cc2F)c2nc(N3CCCC[C@@H]3CO)ccc2c1=O)C(F)(F)C(F)(F)F` [Example 173, 1-(3,5-Difluoropyridin-2-yl)-7-[(2R)-2-(hydroxymethyl)piperidin-1-yl]-4-oxo-N-(3,3,4,4,4-pentafluoro-2-methylbutan-2-yl)-1,4-dihydro-1,8-naphthyridine-3-carboxamide], it took 88 nM to reach a half-maximal effect (EC50) and the Emax worked out at 100%.

For the molecule `CC(C)(NC(=O)c1cn(-c2ncc(F)cc2F)c2nc(N3CCC(O)(CO)CC3)ccc2c1=O)C(F)(F)C(F)(F)F` [Example 174, 1-(3,5-Difluoropyridin-2-yl)-7-[4-hydroxy-4-(hydroxymethyl)piperidin-1-yl]-4-oxo-N-(3,3,4,4,4-pentafluoro-2-methylbutan-2-yl)-1,4-dihydro-1,8-naphthyridine-3-carboxamide], the EC50 came out at 83 nM and the Emax amounted to 100%.

For the molecule `O=C(NC(C(F)(F)F)C(F)(F)F)c1cn(-c2ncc(F)cc2F)c2nc(N3CCCC[C@@H]3CO)ccc2c1=O` [Example 178, 1-(3,5-Difluoropyridin-2-yl)-N-(1,1,1,3,3,3-hexafluoropropan-2-yl)-7-[(2R)-2-(hydroxymethyl)piperidin-1-yl]-4-oxo-1,4-dihydro-1,8-naphthyridine-3-carboxamide], a half-maximal response (EC50) required 56 nM and the Emax is 100%.

For `O=C(NC(C(F)(F)F)C(F)(F)F)c1cn(-c2ncc(F)cc2F)c2nc(N3CCC(O)(CO)CC3)ccc2c1=O` [Example 179], the EC50 worked out at 95 nM and the Emax came to 100%.

For the molecule `O=C(NC(C(F)(F)F)C(F)(F)F)c1cn(-c2ncc(F)cc2F)c2nc(N3CCC[C@@H]3CO)ccc2c1=O` [Example 180, 1-(3,5-Difluoropyridin-2-yl)-N-(1,1,1,3,3,3-hexafluoropropan-2-yl)-7-[(2R)-2-(hydroxymethyl)pyrrolidin-1-yl]-4-oxo-1,4-dihydro-1,8-naphthyridine-3-carboxamide], the EC50 turned out to be 89 nM and the Emax is 100%.

Turning to `CC(C)(NC(=O)c1cn(-c2ncc(F)cc2F)c2nc(N3CC4(COC4)C3)ccc2c1=O)C(F)(F)C(F)(F)F` [Example 182, 1-(3,5-Difluoropyridin-2-yl)-7-(2-oxa-6-azaspiro[3.3]hept-6-yl)-4-oxo-N-(3,3,4,4,4-pentafluoro-2-methylbutan-2-yl)-1,4-dihydro-1,8-naphthyridine-3-carboxamide], the EC50 was 410 nM and the Emax came out at 100%.

Turning to `CC(C)(NC(=O)c1cn(-c2ncc(F)cc2F)c2nc(N3CC(CO)(CO)C3)ccc2c1=O)C(F)(F)C(F)(F)F` [Example 184, 7-[3,3-Bis(hydroxymethyl)azetidin-1-yl]-1-(3,5-difluoropyridin-2-yl)-4-oxo-N-(3,3,4,4,4-pentafluoro-2-methylbutan-2-yl)-1,4-dihydro-1,8-naphthyridine-3-carboxamide], a half-maximal effect (EC50) was put at 130 nM and the Emax is 100%.
